In ChEMBL document CHEMBL1201862, “PubChem BioAssay data set” (2004):
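Briefly, cells in 96-well plates were exposed to five compound concentrations for 48 h, and endpoints were estimated by linear interpolation. Here, GI50 denotes the concentration required for 50% inhibition of growth.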 Calls of active or inactive are those of the source. No stated cut-off is given here; in the data, active = GI50 up to about 1.1 µM and inactive = higher.

Tests used:
Test in all cases: DTP human tumour cell line panel, 48 h
[1] = tested on: DU-145
[2] = tested on: MDA-MB-231
[3] = tested on: MDA-N
[4] = tested on: PC-3
[5] = tested on: T47D
[6] = tested on: HOP-18
[7] = tested on: RXF 631
[8] = tested on: XF498

Row | Compound | GI50 [1] | GI50 [2] | GI50 [3] | GI50 [4] | GI50 [5] | GI50 [6] | GI50 [7] | GI50 [8]
1 | CC(=O)Nc1ccc2[nH]c(C(=O)N3CC(CCl)c4c3cc(N)c3ccccc43)cc2c1 (stereo not drawn) | < 0.01 µM (active) | < 0.0237 µM (active) | 0.0177 µM (active) | < 0.016 µM (active) | < 0.0164 µM (active) |  |  | 
2 | CCCCCCCCCCCCCCCC(=O)OC1C(O)C(CO)OC(OC)C1NC(=O)N(CCCl)N=O (stereo not drawn) |  |  |  |  |  | 15.8 µM (inactive) | 16.8 µM (inactive) | 14.6 µM (inactive)
3 | NS(=O)(=O)C1CCCCC1C(=O)NNC(=O)C(=O)Nc1nnc(S)[nH]1 (stereo not drawn) |  |  |  |  |  |  |  | > 100 µM (inactive)
4 | COc1ccc(N2CN(C)CSC2=S)cc1 | > 100 µM (inactive) | > 100 µM (inactive) |  | > 100 µM (inactive) | 54 µM (inactive) |  |  | 
5 | CO/N=C1/c2sccc2[C@H](NC(=O)C(F)(F)F)[C@@H]1O | > 100 µM (inactive) | > 100 µM (inactive) | > 100 µM (inactive) | > 100 µM (inactive) | > 100 µM (inactive) |  |  | 
6 | O=C(N/N=C\c1cccc2ccccc12)Nc1ccccc1 | > 100 µM (inactive) |  | > 100 µM (inactive) | > 100 µM (inactive) | > 100 µM (inactive) |  |  | 
7 | O=C1CCC(c2ccc(Cl)cc2)=NN1c1nsc2ccccc12 |  |  |  |  |  | 18.7 µM (inactive) |  | 
8 | COC(=O)Cc1c(-c2c(CC(=O)OC)c3ccccc3n2C2OC(COC(C)=O)C(OC(C)=O)C(OC(C)=O)C2OC(C)=O)[nH]c2ccccc12 (stereo not drawn) | > 100 µM (inactive) | 43.2 µM (inactive) | > 100 µM (inactive) | > 100 µM (inactive) |  |  |  | 
9 | CCCCCCc1ccc(O)cc1O [HEXYLRESORCINOL] |  |  |  |  |  | 28.2 µM (inactive) |  | > 65.3 µM (inactive)
10 | O=C1CNC(=O)N1 [HYDANTOIN] |  |  |  |  |  | > 1120 µM (inactive) |  | > 11.2 µM (inactive)
11 | CC(=O)CC(=O)CCC(=O)O [SUCCINYLACETONE] |  |  |  |  |  | > 100 µM (inactive) |  | > 100 µM (inactive)
